Test results reported in patent US20120264942A1, “METHOD FOR SCREENING OSTEOPONTIN INHIBITOR AND INHIBITOR OBTAINED FROM THE METHOD” (INNOPHARMASCREEN, INC., priority 2009, published 2012).

Key:
mouse skull calvaria = assay: Mouse Calvaria Model, LPS-induced born destruction; assay type: in vivo; conditions: Lipopolysaccharide 10 mg/kg to mouse skull; compound 10 mg/kg
Protocol: […] On 5 days, the mice calvaria were extracted; the cross-section of the calvaria was stained with H&E Staining to identify; and then the inhibition degree of the born destruction effect was analyzed using Image-pro Plus 4.5 (Media Cybernetics, Inc.).

osteoclast = assay: Osteoclast differentiation inhibition, myeloplast-derived macrophage with hM-CSF and RANKL, TRAP staining (Example 4); assay type: cell-based, mice (C57BL/6J); conditions: 10 mM; 30 ng/ml hM-CSF, 100 ng/ml RANKL; 4 days
Protocol: Myeloplasts collected from five-week mice (C57BL/6J) were added to 48-well plate and cultured in a differentiation medium [a-MEM (Invitrogen. co.), 10% (v/v) Fetal bovine serum (FBS), 100 units/ml penicillin, 100 μg/ml streptomycin] including 30 ng/ml of hM-CSF (R&D system Inc.) that is a macrophage differentiator for three days under the conditions of 37° C., 95% (v/v) air, and 5% (v/v) CO2 to be 4×10^4 cell/well so that the macrophase derived from the myeloplast was obtained. In this situation, in addition to the concentration of 30 ng/ml hM-CSF, mouse RANKL that is an osteoclast differentiator was expressed in E. coli; it was purely separated and purified; it was added in the concentration of 100 ng/ml; and then it was continuously cultured under the same conditions to induce the cell differentiation to the osteoclast. After culturing for 4 days, the cell was fixed with 3.7% formaldehyde for 15 minutes at room temperature; washed with distilled water twice; the staining solution made by mixing acetate, Fast Gargnet GBC base, naphtol AS-BI phosphate, […], and tartrate in the ratio as disclosed in the instructions of Acid Phosphatase, Leukocyte (TRAP) Kit™ (Sigma Co.) was added to be […]; and then reacted at 37° C. for 20 minutes to stain the differentiated osteoclast.

mouse osteoclast = assay: Osteoclast differentiation inhibition, mouse osteoclast with M-CSF and RANKL (Example 5); assay type: cell-based; conditions: M-CSF 30 ng/ml, RANKL 200 ng/ml
Protocol: For FIG. 6, the mouse osteoclast (2×10^4/well) was added to 48 well plate; M-CSF (30 ng/ml) and RANKL (200 ng/ml) were added at the same time; and then 10 mM of each of C01, CO2, and G10 that are an osteopontin inhibitor was treated to analysis the inhibition ability for differentiating to an osteoclast.

SMILES | effect on inhibiting the born destruction effect due to LPS in vivo (mouse skull calvaria) | inhibition ability for differentiating to the osteoclast (osteoclast) | inhibition ability for differentiating to the osteoclast (mouse osteoclast)
O=C1C(O)=C(O)C(=O)c2c(O)c(Cl)c(Cl)c(O)c21 [IPS-02001, 6,7-Dichloro-2,3,5,8-tetrahydroxy-[1,4]naphthoquinone] | has the effect on inhibiting the born destruction effect | excellent inhibition ability | excellent inhibition ability
O=C(O)C1CSC(c2ccccn2)N1 (stereo not shown) [IPS-02003, 2-Pyridin-2-yl-thiazolidine-4-carboxylic acid] |  | no inhibition ability | no inhibition ability
O=C1C(O)=C(O)C(=O)c2c(O)c(Cl)cc(O)c21 [IPS-02002, 6-Chloro-2,3,5,8-tetrahydroxy-[1,4]naphthoquinon] |  | excellent inhibition ability | excellent inhibition ability
